The target in assay [1] is T1, human PTEFb (CDK9/Cyclin T1) (Homo sapiens, UniProt P50750).
T1 construct: purchased ProQinase, Freiburg, Germany
In words: Surface Plasmon Resonance PTEFb (Method 8). It is filed as binding. Conditions: 37° C., experimental parameters E.

Assay [2] addresses T2, CDK2/CycE (Homo sapiens, UniProt P24941).
T2 construct: GST; purchased ProQinase GmbH (Freiburg, Germany); host or cells: insect cells (Sf9)
In words: CDK2/CycE high ATP kinase assay (TR-FRET, Method 2b). It is filed as biochemical. Conditions: 2 mM ATP. The protocol:
2b. CDK2/CycE High ATP Kinase Assay:
CDK2/CycE-inhibitory activity of compounds of the present invention at 2 mM adenosine-tri-phosphate (ATP) was quantified employing the CDK2/CycE TR-FRET (TR-FRET=Time Resolved Fluorescence Resonance Energy Transfer) assay as described in the following paragraphs.
Recombinant fusion proteins of GST and human CDK2 and of GST and human CycE, expressed in insect cells (Sf9) and purified by Glutathion-Sepharose affinity chromatography, were purchase from ProQinase GmbH (Freiburg, Germany). As substrate for the kinase reaction biotinylated peptide biotin-Ttds-YISPLKSPYKISEG (C-terminus in amid form) was used which can be purchased e.g. from the company JERINI peptide technologies (Berlin, Germany).
(§1) For the assay 50 nl of a 100 fold concentrated solution of the test compound in DMSO was pipetted into a black low volume 384 well microtiter plate (Greiner Bio-One, Frickenhausen, Germany), 2 μl of a solution of CDK2/CycE in aqueous assay buffer [50 mM Tris/HCl pH 8.0, 10 mM MgCl2, 1.0 mM dithiothreitol, 0.1 mM sodium ortho-vanadate, 0.01% (v/v) Nonidet-P40 (Sigma)] were added and the mixture was incubated for 15 min at 22° C. to allow pre-binding of the test compounds to the enzyme before the start of the kinase reaction. Then the kinase reaction was started by the addition of 3 μl of a solution ATP (3.33 mM=>final conc. in the 5 μl assay volume is 2 mM) and substrate (1.25 μM=>final conc. in the 5 μl assay volume is 0.75 μM) in assay buffer and the resulting mixture was incubated for a reaction time of 25 min at 22° C. The concentration of CDK2/CycE was adjusted depending of the activity of the enzyme lot and was chosen appropriate to have the assay in the linear range, typical concentrations were in the range of 15 ng/ml. The reaction was stopped by the addition of 5 μl of a solution of TR-FRET detection reagents (0.2 μM streptavidine-XL665 [Cisbio Bioassays, Codolet, France] and 1 nM anti-RB(pSer807/pSer811)-antibody from BD Pharmingen [#558389] and 1.2 nM LANCE EU-W1024 labeled anti-mouse IgG antibody [Perkin-Elmer, product no. AD0077, as an alternative a Terbium-cryptate-labeled anti-mouse IgG antibody from Cisbio Bioassays can be used]) in an aqueous EDTA-solution (100 mM EDTA, 0.2% (w/v) bovine serum albumin in 100 mM HEPES pH 7.5).
(§2) The resulting mixture was incubated 1 h at 22° C. to allow the formation of complex between the phosphorylated biotinylated peptide and the detection reagents. Subsequently the amount of phosphorylated substrate was evaluated by measurement of the resonance energy transfer from the Eu-chelate to the streptavidine-XL. Therefore, the fluorescence emissions at 620 nm and 665 nm after excitation at 350 nm were measured in a TR-FRET reader, e.g. a Rubystar (BMG Labtechnologies, Offenburg, Germany) or a Viewlux (Perkin-Elmer). The ratio of the emissions at 665 nm and at […] was taken as the measure for the amount of phosphorylated substrate. The data were normalised (enzyme reaction without inhibitor=0% inhibition, all other assay components but no enzym=100% inhibition).

Assay [3] concerns the target T3, CDK9/CycT1 (Homo sapiens, UniProt P50750).
T3 construct: Recombinant full-length His-tagged human CDK9 and CycT1; His; purchased Invitrogen PV4131; host or cells: insect cells
Put plainly: CDK9/CycT1 high ATP kinase assay (TR-FRET, Method 1b). It is filed as biochemical. Conditions: 2 mM ATP. How it is done: 1b. CDK9/CycT1 High ATP Kinase Assay
CDK9/CycT1-inhibitory activity of compounds of the present invention at a high ATP concentration after preincubation of enzyme and test compounds was quantified employing the CDK9/CycT1 TR-FRET assay as described in the following paragraphs.
Recombinant full-length His-tagged human CDK9 and CycT1, expressed in insect cells and purified by Ni-NTA affinity chromatography, were purchase from Invitrogen (Cat. No PV4131). As substrate for the kinase reaction biotinylated peptide biotin-Ttds-YISPLKSPYKISEG (C-terminus in amid form) was used which can be purchased e.g. from the company JERINI peptide technologies (Berlin, Germany).
as §1, with “CDK9/CycT1” for “CDK2/CycE”, “Then the kinase reaction was started by the addition of 3 μl of a solution ATP (3.33 mM=>final conc. in the 5 μl assay volume is 2 mM) and substrate (1.25 μM=>final conc. in the 5 μl assay volume is 0.75 μM) in assay buffer and the resulting mixture was incubated for a reaction time of 25 min at 22° C.” left out, “0.5 μg/mL.” for “15 ng/ml.”, “AD0077])” for “AD0077, as an alternative a Terbium-cryptate-labeled anti-mouse IgG antibody from Cisbio Bioassays can be used])”
as §2, with “nm was” for “nm were”, “a HTRF” for “a TR-FRET”

For assay [4] the following is noted: in vivo; cited from earlier work.

Here are results for 2 compounds from patent publication US10214542B2, “Modified macrocyclic compounds” (BAYER PHARMA AKTIENGESELLSCHAFT, priority 2015, dated 2019).

What is called koff is the first-order rate constant of dissociation. The pIC50 is −log10 of the IC50, conventionally taken in molar units. A higher pIC50 goes with a low IC50.

pIC50: −log10 of the molar value. Marks after values point to notes of the source that are not given here.

T1 sequence (P50750 whole entry): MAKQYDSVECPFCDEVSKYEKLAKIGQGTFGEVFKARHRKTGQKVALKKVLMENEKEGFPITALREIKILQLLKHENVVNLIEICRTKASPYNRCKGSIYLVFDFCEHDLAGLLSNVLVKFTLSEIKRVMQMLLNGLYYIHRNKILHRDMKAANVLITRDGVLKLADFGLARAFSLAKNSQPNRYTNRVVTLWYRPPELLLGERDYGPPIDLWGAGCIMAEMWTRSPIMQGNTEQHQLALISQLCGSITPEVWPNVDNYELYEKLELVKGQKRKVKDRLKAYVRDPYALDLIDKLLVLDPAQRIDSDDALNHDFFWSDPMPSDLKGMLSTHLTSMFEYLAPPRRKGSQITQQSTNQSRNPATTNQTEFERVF
T1 sequence (O60563 whole entry partner): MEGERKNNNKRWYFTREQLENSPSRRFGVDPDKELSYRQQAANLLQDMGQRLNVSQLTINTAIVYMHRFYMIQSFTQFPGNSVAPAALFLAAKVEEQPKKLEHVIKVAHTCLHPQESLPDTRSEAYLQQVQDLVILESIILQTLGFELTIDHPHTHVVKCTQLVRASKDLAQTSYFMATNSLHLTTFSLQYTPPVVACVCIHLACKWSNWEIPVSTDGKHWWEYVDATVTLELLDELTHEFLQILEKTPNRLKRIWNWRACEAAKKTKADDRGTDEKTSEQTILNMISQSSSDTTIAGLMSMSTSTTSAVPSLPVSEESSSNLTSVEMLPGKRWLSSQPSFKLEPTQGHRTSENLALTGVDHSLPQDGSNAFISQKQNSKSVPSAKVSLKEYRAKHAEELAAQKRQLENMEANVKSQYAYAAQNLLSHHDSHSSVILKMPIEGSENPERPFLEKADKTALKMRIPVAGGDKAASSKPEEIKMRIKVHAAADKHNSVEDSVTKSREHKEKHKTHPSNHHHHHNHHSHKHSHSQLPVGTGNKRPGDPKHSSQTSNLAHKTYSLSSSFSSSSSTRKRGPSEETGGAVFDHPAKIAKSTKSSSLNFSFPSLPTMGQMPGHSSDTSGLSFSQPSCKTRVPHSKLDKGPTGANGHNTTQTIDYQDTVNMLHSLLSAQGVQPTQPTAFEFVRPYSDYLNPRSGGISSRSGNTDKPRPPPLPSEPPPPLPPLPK
T3 sequence (P50750 whole entry): as the sequence (P50750 whole entry) above
T3 sequence (O60563 whole entry partner): as the sequence (O60563 whole entry partner) above

On to `CS(=N)(=O)Cc1cc2cc(c1)Nc1ncc(F)c(n1)-c1ccc(F)cc1OCCCCN2` (racemic) [Example 25, (rac)-16,20-difluoro-9-[(S-methylsulfonimidoyl)methyl]-3,4,5,6-tetrahydro-2H,12H-13,17-(azeno)-11,7-(metheno)-1,6,12,14-benzoxatriazacyclononadecine], for which the Target resident time in assay [1] (1/koff) is 14.7* min. The koff in assay [1] (read-out: Dissociation rate constant koff) amounted to 0.00113 s⁻¹. Besides, the figures for the pIC50 in assay [2] and in assay [3] (Method 1b) were 6.13 and 8.48, respectively. The “Selectivity high ATP CDK9 over high ATP CDK2: IC50 (high ATP CDK2)/IC50 (high ATP CDK9)” value in assay [3] (Methods 1b and 2b) turned out to be 224.
Take `C[N+]1(C)[C@@H]2C[C@@H](OC(=O)C(O)(c3cccs3)c3cccs3)C[C@H]1[C@@H]1O[C@@H]12` [tiotropium]: the “duration of protection against bronchospasms” value in assay [4] was “more than 6 hours”.
